# Literature values, collected in patent publication US6455557B1 (Elan Pharmaceuticals, Inc., priority 2001, dated 2002).
# Where two headings read alike, the source gives them in different places.
# Columns and labels:
# [1] = not given; remark: listed apart in the source
# [2] = not given; remark: listed apart in the source
# [3] = test system: plasma proteins; settings: independent of concentration over the therapeutic range
# [4] = oral administration, tablet formulation
compound,measurement,setting,value
Clc1cccc(Cl)c1N=C1NCCN1 [clonidine],Efficacy in treating spastic conditions,"human, in vivo",ineffective
"Clc1ccc2nsnc2c1NC1=NCCN1 [tizanidine, 5-chloro-4-(2-imidazolin-2-ylamino)-2,1,3-benzothiadiazole]","Muscle strength, as assessed by objective means",patients,not to be adversely affected
same,Spasm frequency and clonus,patients,reduced
same,Subjective muscle weakness compared with baclofen or diazepam recipients,patients,reported less often
same,Time of maximum anti-spastic effects after administration,some studies,≤ 2 h
same,Fraction of an administered dose metabolized,[1]; in vivo,approximately 95%
same,Mean steady state volume of distribution,"[1]; intravenous administration, healthy adult volunteers",2.4 L/kg
same,Absolute oral bioavailability,[1]; oral,approximately 40%
same,Half-life,[1]; [4],approximately 2.5 hours
same,Time of peak plasma concentrations after dosing,[1]; [4],1.5 h
same,Dose linearity of pharmacokinetics,[1]; over a dose of 1 to 20 mg,linear pharmacokinetics
same,Extent of tizanidine absorption with food,"[1]; tablet formulation, with food",not affected
same,Increase of Cmax by food,"[1]; tablet formulation, with food",approximately one-third
same,Shortening of time to peak concentration by food,"[1]; tablet formulation, with food",approximately 40 minutes
same,Sedation cases rated as severe,"[2]; multiple dose, controlled clinical studies",10%
same,Patients reporting sedation as an adverse event,"[2]; multiple dose, controlled clinical studies, any dose",48%
same,Patients continuing to report drowsiness 6 hours following dosing,[2]; single dose of 8 mg,13%
same,Patients continuing to report drowsiness 6 hours following dosing,[2]; single dose of 16 mg,51%
same,Onset of drowsiness following dosing,[2]; single dose study,30 min
same,Peak of drowsiness following dosing,[2]; single dose study,1.5 h
same,Patients reporting that they were drowsy during the 6 hour study,"[2]; single dose study, 8 mg",76%
same,Patients reporting that they were drowsy during the 6 hour study,"[2]; single dose study, 16 mg",92%
same,Bound to plasma proteins,[3],approximately 30%
